For orientation: EC50 means the concentration giving half of the maximal effect.

Entries after “also recorded” stand apart in the source; their conditions may differ.

The target of one test is T1, NurRE: Nurr1 homodimer (Homo sapiens, UniProt P43354).
T1 construct: the activity of full-length human Nurr1 in cellular settings; host or cells: HEK293T
Description: Full-length Nurr1 reporter gene assay on NurRE response element. Type of test: cell-based. The following applies: full-length human Nurr1; HEK293T; mean ± SD.

The test system of test [1] is Nurr1. More on the design: method as in PMID 26124091. The following applies: cited from earlier work.
Test [2] concerns the target T2, Nurr1 (Homo sapiens, UniProt P43354).
T2 construct: Nurr1 (uniprot entry: hNURR1–P43354, residues 360–598); expressed in transfected cells; host or cells: HEK293T
Put plainly: Gal4-Nurr1 hybrid reporter gene assay in HEK293T cells. It counts as cell-based. The following applies: HEK293T; mean ± SD; n≥3. Background: In a reporter assay the amount or activity of a reporter protein is the signal.

A further test has as its target T3, Nurr1 LBD homodimer (Homo sapiens, UniProt P43354).
T3 construct: Nurr1 (uniprot entry: P43354-1, residues 364–598); MBP-Asn10 linker (N, cleaved yes); His8-Tag (N, cleaved yes); His10-Tag (N, cleaved yes); made in house; host or cells: E. coli T7 express (with pGro7)
Description: Nurr1 homodimerization HTRF (GFP-Nurr1 LBD vs Tb-labeled Nurr1 LBD). It counts as biochemical. The following applies: cell-free; ligand 100 µM. (In general: TR-FRET usually uses a lanthanide donor and a delayed reading to cut background.)

The target of another test is T4, NBRE: Nurr1 monomer (Homo sapiens, UniProt P43354).
T4 construct: the activity of full-length human Nurr1 in cellular settings; host or cells: HEK293T
T4 sequence (P43354 whole entry): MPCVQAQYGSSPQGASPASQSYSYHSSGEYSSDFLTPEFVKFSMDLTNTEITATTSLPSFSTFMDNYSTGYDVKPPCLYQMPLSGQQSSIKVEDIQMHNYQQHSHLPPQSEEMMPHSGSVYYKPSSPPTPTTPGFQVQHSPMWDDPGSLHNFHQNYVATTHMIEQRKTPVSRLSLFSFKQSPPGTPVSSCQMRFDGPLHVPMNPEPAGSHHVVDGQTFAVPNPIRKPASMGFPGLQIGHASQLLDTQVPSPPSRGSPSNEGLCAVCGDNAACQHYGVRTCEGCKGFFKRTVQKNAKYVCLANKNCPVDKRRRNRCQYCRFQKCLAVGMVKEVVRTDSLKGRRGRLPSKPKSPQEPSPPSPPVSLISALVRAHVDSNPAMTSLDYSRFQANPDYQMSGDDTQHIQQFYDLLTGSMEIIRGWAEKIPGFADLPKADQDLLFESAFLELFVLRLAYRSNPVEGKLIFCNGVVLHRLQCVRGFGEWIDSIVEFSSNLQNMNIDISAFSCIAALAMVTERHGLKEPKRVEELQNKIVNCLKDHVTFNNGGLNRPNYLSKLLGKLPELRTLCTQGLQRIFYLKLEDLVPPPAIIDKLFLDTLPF
Description: Full-length Nurr1 reporter gene assay on NBRE response element. Type of test: cell-based. The following applies: full-length human Nurr1; HEK293T; mean ± SD.

The target of test [3] is T5, DR5: Nurr1–RXRα heterodimer (Homo sapiens, UniProt P43354).
T5 construct: the activity of full-length human Nurr1 in cellular settings; host or cells: HEK293T
T5 sequence (P43354 whole entry, one chain of several): as the sequence (P43354 whole entry) above
Put plainly: Full-length Nurr1 reporter gene assay on DR5 response element. It counts as cell-based. The following applies: full-length human Nurr1 and RXRα overexpressed; HEK293T; mean ± SD.

In another test the target is T6, Nurr1–NCoR-1 interaction (Homo sapiens, UniProt P43354).
T6 construct: Nurr1 (uniprot entry: P43354-1, residues 364–598); His10-Tag (N, cleaved yes); made in house; host or cells: E. coli T7 express (with pGro7)
T6 sequence (P43354 364-598): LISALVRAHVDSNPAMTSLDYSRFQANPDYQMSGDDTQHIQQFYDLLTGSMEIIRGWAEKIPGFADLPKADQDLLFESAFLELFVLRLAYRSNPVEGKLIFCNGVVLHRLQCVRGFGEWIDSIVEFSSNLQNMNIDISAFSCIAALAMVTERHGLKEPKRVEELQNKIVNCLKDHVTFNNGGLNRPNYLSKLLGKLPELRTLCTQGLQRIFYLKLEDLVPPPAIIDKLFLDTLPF
Put plainly: Nurr1–NCoR-1 interaction HTRF (GFP-Nurr1 LBD titrated against Tb-labeled NCoR-1). It counts as biochemical. Conditions: cell-free; ligand fixed at 100 µM.

T3 sequence (P43354 364-598): as above
T1 sequence (P43354 whole entry): as the sequence (P43354 whole entry) above
T2 sequence (P43354 360-598): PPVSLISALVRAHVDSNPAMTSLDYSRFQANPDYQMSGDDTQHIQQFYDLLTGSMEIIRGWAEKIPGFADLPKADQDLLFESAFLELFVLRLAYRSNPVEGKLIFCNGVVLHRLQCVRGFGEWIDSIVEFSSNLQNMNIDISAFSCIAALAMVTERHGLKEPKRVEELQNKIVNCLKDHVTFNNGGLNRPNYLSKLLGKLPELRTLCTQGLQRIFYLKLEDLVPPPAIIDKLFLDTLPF
Description for Nurr1 LBD homodimer: Strength and modulation of the formation of the heterodimer composed of the LBDs of Nurr1 and RXRα was investigated by titration of GFP-RXRα LBD against a fixed concentration of Nurr1 LBD. Assay solutions were prepared in HTRF assay buffer supplemented with 0.1% (w/v) CHAPS as well as 1% DMSO with test compounds at 100 µM or DMSO alone as negative control. […] Free GFP was added to keep the total GFP content stable at 4 µM throughout the entire series in order to suppress artefacts from changes in degree of diffusion enhanced FRET. Samples were equilibrated at RT for 2 h before FI520 and FI620 were recorded after excitation at 340 nm, and the HTRF signal was calculated as described above.
Description for Nurr1–NCoR-1 interaction: Since ligand concentration was fixed in this setting, interference with the HTRF system is less prone to generate potential artifacts.
To maintain a constant GFP concentration, free GFP protein was added to the dilution series. The experiments were performed in HTRF assay buffer (150 mM KF, 25 mM HEPES pH 7.5 (KOH), 5% (w/v) Glycerol, supplemented with 0.1% (w/v) CHAPS and 5 mM DTT) with 1% DMSO in an assay volume of 20 µl. After 1 h incubation at RT, fluorescence intensities after excitation at 340 nm were recorded at 520 nm for GFP acceptor fluorescence and 620 nm for Tb-SA donor fluorescence and the HTRF signal was calculated as described above.

Take `CCN(CC)Cc1cc(Nc2ccnc3cc(Cl)ccc23)ccc1O` [AQ, amodiaquine]: the EC50 was 87 µM on NurRE: Nurr1 homodimer, 36 µM at Nurr1 [2], 92 µM on NBRE: Nurr1 monomer and 97 µM in test [3]. In addition, the Nurr1 activation efficacy with Nurr1 [1] was ~ 3 fold. Besides, at Nurr1 LBD homodimer, the “Homodimerization (effect of ligand)” value was “promoted homodimerization; also recorded: Promotes dimerization”. The “NCoR-1 affinity (effect of ligand)” value at Nurr1–NCoR-1 interaction is recorded as “promoted the Nurr1–NCoR-1 interaction; also recorded: Enhances affinity”.

The record behind these values is PMC9814838, “The orphan nuclear receptor Nurr1 is responsive to non-steroidal anti-inflammatory drugs” (Communications Chemistry, 2020).
